The test system of data set [1] is Tg-SwDI mouse model of AD and cerebral amyloid angiopathy (CAA). Description: Cerebral microbleeds (ARIA-H) in Tg-SwDI mice given PNA5 with or without anti-Aβ antibody. The following applies: Tg-SwDI mice aged 12-13 months; PNA5 30 μL, with PBS or anti-Aβ antibody 3 mg/kg; 2 months; tissue analysis (FIGS. 1A and 1B). The format is in vivo. The method, then: The effect the Ang-(1-7) oligopeptide PNA5 had on cerebral microbleeds (ARIA-H) in a mouse model of AD and cerebral amyloid angiopathy (CAA) was studied.
Tg-SwDI mice aged 12-13 months were administered: (1) the PNA5 vehicle, without PNA5, and PBS, (2) vehicle and an anti-Aβ antibody, (3) PNA5 and PBS, or (4) PNA5 and an anti-Aβ antibody. The anti-AB antibody therapy (IgG) was administered in an amount of 3 mg/kg. The PNA5 was administered in an amount of 30 μL. For groups receiving the PNA5 alone (Group 3), the compounds were administered for […] which point they were administered a […] (NOR) test and Nest building test (FIG. 2) prior to euthanasia and collection of the tissue for analysis of the microbleeds (FIGS. 1A and 1B). For groups receiving the anti-AB antibody and PNA5 (Group 4), the compounds were administered for 2 months at which point they were administered a […] (NOR) test and Nest building test prior (FIG. 2) to euthanasia and collection of the tissue for analysis of the microbleeds (FIGS. 1A and 1B).

The conditions of data set [2]: FDA-approved food additive; cited from earlier work.

No end group written: not given here.

Regarding “PNA5: Ang-(1-7) derivative Asp Arg Val Tyr Ile His Ser* (glycosylated serine), carboxyl terminal end NH2 (DRVYIHS-NH2; not fully specified (residue 7); also: glycan on Ser7 not given here)”, the “cerebral microbleeds (ARIA-H)” value in data set [1] is recorded as “decreased”.
As for `CC(=O)OC[C@H]1O[C@H](O[C@]2(COC(C)=O)O[C@H](COC(=O)C(C)C)[C@@H](OC(=O)C(C)C)[C@@H]2OC(=O)C(C)C)[C@H](OC(=O)C(C)C)[C@@H](OC(=O)C(C)C)[C@@H]1OC(=O)C(C)C` [SAIB, sucrose acetoisobutyrate], in data set [2], the “safe human daily intake” value is recorded as “up to 20 mg/kg”.

The record behind these values is patent publication US20250177476A1, “ANG-(1-7) OLIGOPEPTIDE DERIVATIVES FOR USE IN MITIGATING AMYLOID-RELATED IMAGING ABNORMALITIES” (ProNeurogen, Inc., priority 2023, published 2025).
